This is an account of results in paper PMC11347546, “A radioligand for in vitro autoradiography of CSF1R in post-mortem CNS tissues” (EJNMMI Research, 2024).

Usually IC50 stands for the concentration at which inhibition is half-maximal.

The target of series [1] is T1, CSF1R (Mus musculus, UniProt P09581).
T1 construct: from tissue; host or cells: whole brain of male CD1 mice, radiotracer injected in vivo, brains counted ex vivo
T1 sequence (P09581 20-977): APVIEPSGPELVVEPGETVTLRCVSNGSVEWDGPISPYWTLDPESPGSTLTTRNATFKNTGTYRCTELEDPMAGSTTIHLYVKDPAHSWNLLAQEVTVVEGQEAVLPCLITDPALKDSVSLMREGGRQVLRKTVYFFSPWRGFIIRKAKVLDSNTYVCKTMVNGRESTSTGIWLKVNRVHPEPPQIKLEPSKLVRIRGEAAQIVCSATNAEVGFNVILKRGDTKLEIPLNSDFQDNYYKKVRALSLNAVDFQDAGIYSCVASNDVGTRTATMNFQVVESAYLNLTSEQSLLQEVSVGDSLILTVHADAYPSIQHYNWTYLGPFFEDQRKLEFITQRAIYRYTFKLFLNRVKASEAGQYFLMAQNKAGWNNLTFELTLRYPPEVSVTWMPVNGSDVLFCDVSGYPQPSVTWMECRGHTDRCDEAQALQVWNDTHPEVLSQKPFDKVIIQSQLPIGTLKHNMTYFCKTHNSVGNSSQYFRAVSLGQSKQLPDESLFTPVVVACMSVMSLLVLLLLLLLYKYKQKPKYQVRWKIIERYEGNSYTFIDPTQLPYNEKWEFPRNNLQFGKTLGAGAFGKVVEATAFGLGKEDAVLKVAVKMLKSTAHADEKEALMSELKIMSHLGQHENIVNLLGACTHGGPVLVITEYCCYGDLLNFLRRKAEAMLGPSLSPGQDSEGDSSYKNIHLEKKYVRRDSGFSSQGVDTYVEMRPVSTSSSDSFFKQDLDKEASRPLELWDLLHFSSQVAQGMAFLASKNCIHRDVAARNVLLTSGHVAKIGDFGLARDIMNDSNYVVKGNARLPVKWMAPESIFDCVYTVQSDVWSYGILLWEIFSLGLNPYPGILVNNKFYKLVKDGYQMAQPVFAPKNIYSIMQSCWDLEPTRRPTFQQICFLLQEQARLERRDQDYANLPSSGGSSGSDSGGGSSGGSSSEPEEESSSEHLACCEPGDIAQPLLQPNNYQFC
Nature of the series: Ex vivo brain uptake of [^11C]1 in LPS-induced murine model of neuroinflammation, baseline and CPPC blocking. On the set-up: species or system CD1 mice. The method, then:
Studies were performed in a murine LPS-induced neuroinflammation model under the conditions described previously. The percentage of the standardized uptake value (%SUV) uptake in the whole brain at […] after injection was corrected for blood radioactivity as SUV^whole brain/SUV^blood = SUV ratio (SUVR) (Fig. 1).
Fig. 1 Brain uptake of CSF1R radiotracer [^11C]1 in control mice (Base); LPS-treated mice (LPS base); and LPS-treated mice, blocking with CSF1R inhibitor (LPS block). The time point was 45 min after the radiotracer injection. The LPS treatment was IP, 10 mg/kg. Data are mean SUVR ± SD (n = 6). […] Statistical analysis: comparison of LPS-baseline versus control or LPS-block, ANOVA
Brain regional distribution of [^11C]1 in neuroinflammation mouse model: The study was performed in the murine LPS-induced neuroinflammation model described previously. […] The LPS (O111:B4, Calbiochem, San Diego, CA) solution in sterile saline (10 mg/kg, 0.2 mL) was administered intraperitoneally and the radiotracer study was performed on the 3rd day thereafter.
The animals were injected IV with 3.7 MBq (0.1 mCi) [^11C]1 [specific radioactivity = 444 GBq/µmol (12 Ci/µmol)] and sacrificed by cervical dislocation at 45 min after the radiotracer injection. The whole brains were removed, dissected on ice and blood samples (0.2-0.5 cc) were taken from heartand their radioactivity content was determined in a γ-counter LKB/Wallac CompuGamma. The outcome variables were calculated as SUVR = SUVwhole brain/SUVblood.

For series [2], the system named is CSF1R. On the set-up: method as in PMID 18242992. The settings on record: read-out: CSF1R functional potency IC50; cited from earlier work.
Details of series [3]: method as in PMID 30635412. The settings on record: baboon brain, baseline PET; cited from earlier work.
On the set-up of series [4]: method as in PMID 30635412. The conditions noted are these: baboon blood, 90 min post injection; cited from earlier work.
The nature of series [5]: Ex vivo regional brain distribution of [^11C]1 in control CD1 mice. Also on record: species or system CD1 male mice. The conditions noted are these: for Regional brain uptake: mean ± SD, n = 3. The procedure:
The regional brain uptake of [^11C]1 in control CD1 male mice at three time points after injection of radiotracer is shown in Table 2. […] The uptake in other regions studied here was lower.
Brain regional distribution of [^11C]1 in control mice, baseline: All animal studies were conducted within the guidelines of approved IACUC protocols for mice and non-human primates. Male CD1 mice of four to eight weeks of age, weighing 24-29 g from Charles River Laboratories (Wilmington, MA) were used. […] The brains were removed and dissected on ice. The brain regions (cerebellum, hippocampus, frontal cortex, brain stem and rest of brain) were weighed and their radioactivity content was determined in a γ-counter LKB/Wallac 1283 CompuGamma CS (Bridgeport, CT). The percentage of injected dose per gram of tissue %ID/g tiss was calculated (Table 2).

A short description of series [6]: Dynamic PET brain uptake in control baboon. The class given is in vivo, Papio anubis baboon. The conditions noted are these: peak at 30 min after injection. The method, then:
Dynamic PET scan was performed on a male baboon (Papio anubis, 27 kg) using the High Resolution Research Tomograph (CPS Innovations, Knoxville, TN) with an IV injection of 751 MBq (20.3 mCi) [^11C]1 [specific radioactivity: 518 TBq/mmol (14,000 Ci/mmol)]. PET imaging and data analysis and radiometabolite analysis of baboon arterial blood are described in detail in the SI Appendix.
PET images were acquired using a CPS/CTI High Resolution Research Tomograph (HRRT), which has an axial resolution (FWHM) of 2.4 mm, and in plane resolution of 2.4–2.8 mm. The animal was anesthetized and handled as described previously. The 90 min PET data were binned into […]: four 15-s, four 30-s, three 1-min, two 2-min, five 4-min, and twelve 5-min frames. Images were reconstructed using the iterative ordered subset expectation maximization (OS-EM) algorithm (with six iterations and 16 subsets) with correction for radioactive decay, deadtime, attenuation, scatter and randoms. The reconstructed image space consisted of cubic voxels, each 1.22 mm^3 in size, and spanning dimensions of 31 cm × 31 cm (transaxially) and 25 cm (axially).
The image analysis and kinetic modeling were performed using software PMOD (v3.7, PMOD Technologies Ltd, Zurich, Switzerland). Dynamic PET images were first co-registered with the MRI images. […]

Series [7] is described as follows: Radiometabolite analysis of baboon blood. In kind it is in vivo, Papio anubis baboon. The settings on record: 90 min post injection. The method, then:
(75%) at 90 min post injection.
Samples were centrifuged at 1200×g and the radioactivity in plasma were measured with a cross-calibrated gamma counter. Selected plasma samples (5, 10, 20, 30, 60, and 90 min) were analyzed with high performance liquid chromatography (HPLC) for radioactive metabolites in plasma as described above.

The nature of series [8]: Radiochemical purity of formulated [^11C]1 after end-of-synthesis by analytical HPLC. The class given is physicochemical. The conditions noted are these: within 90 min after the end-of-synthesis. The procedure: To a 1 mL V-vial, precursor, 4-cyano-N-(2-(4-methylpiperidin-1-yl)-4-(piperazin-1-yl)phenyl)-1H-pyrrole-2-carboxamide, 8 (1 mg) was added in solution of 0.2 mL of anhydrous DMF. [^11C]Methyl iodide, carried by a stream of helium, was trapped in the precursor solution. The reaction was heated at 80 °C for 3.5 min, then quenched with 0.2 mL of water. The crude reaction product was purified by reverse-phase high performance liquid chromatography (HPLC) at a flow rate of 12 mL/min. The radiolabelled product [^11C]1 (tR = 7–8 min) was fully separated from the precursor (tR = 2.7 min) and collected in a solution of 0.3 g sodium ascorbate in 50 mL water. The aqueous solution was transferred through an activated Waters Oasis Sep-Pak Light cartridge (Milford, MA). After washing the cartridge with 10 mL saline, the product was eluted with 1 mL of ethanol through a […] sterile filter into a sterile, pyrogen-free vial containing 4 mL saline, and 10 mL of 0.9% saline was added through the same filter. The final product, [^11C]1, was analyzed by analytical HPLC to determine the radiochemical purity (> 99%) and specific radioactivity (15–23 Ci/µmol).
HPLC conditions for [^11C]1. Preparative HPLC: Column, XBridge C18, 10 × 250 mm (Waters, Milford, MA). Mobile phase: 39%:61% acetonitrile: triethylamine-phosphate buffer, pH 7.2. Flow rate: 12 mL/min, retention time 8 min. […]

Values joined by “and” are separate entries in the source; they are usually repeats but may differ in a detail not shown here. Identical values can stand only once. Like-named read-outs stand apart in the source and are kept apart here.

For `CN1CCN(c2ccc(NC(=O)c3ccc(C#N)o3)c(N3CCCCC3)c2)CC1` [CPPC, 5-cyano-N-(4-(4-methylpiperazin-1-yl)-2-(piperidin-1-yl)phenyl)furan-2-carboxamide, reference compound], the “Effect of blocking on [^11C]1 brain uptake (SUVR)” value at CSF1R [1] (CPPC 1 mg/kg IP 5 min before [^11C]1, LPS-treated mice) was “significantly decreased the uptake in the LPS-treated mice to the control level”. For the same compound, the half-inhibitory concentration (IC50) in the series with CSF1R [2] is […].
As to `CC1CCN(c2cc(N3CCN(C)CC3)ccc2NC(=O)c2cc(C#N)c[nH]2)CC1` [Compound 1, 4-Cyano-N-(4-(4-methylpiperazin-1-yl)-2-(4-methylpiperidin-1-yl)phenyl)-1H-pyrrole-2-carboxamide], in the series with CSF1R [2], the IC50 was […].
On to `[11CH3]N1CCN(c2ccc(NC(=O)c3ccc(C#N)o3)c(N3CCCCC3)c2)CC1` [[^11C]CPPC], for which the Brain uptake in series [3] is recorded as 3.5 SUV. For the same compound, the Metabolism rate in series [4] is listed as 75%.
For `CC1CCN(c2cc(N3CCN([11CH3])CC3)ccc2NC(=O)c2cc(C#N)c[nH]2)CC1` [[^11C]1, 4-cyano-N-(4-(4-[^11CH3]methylpiperazin-1-yl)-2-(4-methylpiperidin-1-yl)phenyl)-1H-pyrrole-2-carboxamide], the Regional brain uptake in series [5] (brain stem, 2 min) stood at 1.78 ± 0.48 %ID/g tissue; in series [5] (brain stem, 30 min) it was 1.32 ± 0.10 %ID/g tissue; in series [5] (brain stem, 60 min) it was 0.92 ± 0.11 %ID/g tissue; in series [5] (cerebellum, 2 min), 2.08 ± 0.39 %ID/g tissue; in series [5] (cerebellum, 30 min) it was 1.39 ± 0.04 %ID/g tissue; in series [5] (cerebellum, 60 min), 0.95 ± 0.09 %ID/g tissue. Also, the Regional brain uptake in series [5] (frontal cortex, 2 min after injection) is 2.15 %ID/g tissue and 2.15 ± 0.44 %ID/g tissue; in series [5] (frontal cortex, 30 min) it was 1.49 ± 0.17 %ID/g tissue; in series [5] (frontal cortex, 60 min), 1.13 ± 0.08 %ID/g tissue; in series [5] (hippocampus, 2 min), 1.63 ± 0.31 %ID/g tissue; in series [5] (hippocampus, 30 min), 1.32 ± 0.10 %ID/g tissue; in series [5] (hippocampus, 60 min), 1.01 ± 0.17 %ID/g tissue. The Regional brain uptake in series [5] (rest of brain, 2 min) was 1.81 ± 0.34 %ID/g tissue; in series [5] (rest of brain, 30 min) it was 1.31 ± 0.10 %ID/g tissue; in series [5] (rest of brain, 60 min) it was 0.90 ± 0.06 %ID/g tissue. The “Total mouse brain uptake” value in series [5] (total mouse brain) was ~ 2 % ID/g tissue. For the same compound, at CSF1R [1] (LPS-treated mice, brain), the “Specific CSF1R binding (share of brain uptake)” value was ~ 50% and 50%. Besides, the “SUVR (SUV whole brain/SUV blood) in LPS-treated mice versus controls” value on CSF1R [1] (whole brain, 40 min after injection, n = 6) is recorded as “significantly greater in LPS-treated mice than in controls”. In series [6], the Peak brain uptake was determined as 0.36 SUV. Besides, in series [7], the Metabolism rate stood at 16%. In series [8], the “Change of radiochemical purity of final product” value was “did not change”.
